Results: ChEMBL document CHEMBL1201862, “PubChem BioAssay data set” (2004)
Activity calls are given as the source filed them.

Tests used:
Vero [1] = experiment: Vero 76 cell viability after compound exposure – Vero 76 cells, synthesized analogs, cytotoxicity control for West Nile virus antiviral project, SAR follow-up (AID 2414); assay type: functional; conditions: Chlorocebus sabaeus
Vero [2] = experiment: Vero cell viability after compound exposure – synthesized analogs, set II, cytotoxicity control for West Nile virus antiviral project, SAR follow-up (AID 2402); assay type: functional; conditions: Chlorocebus sabaeus
Vero [3] = experiment: host cell viability loss, Vero E6 – synthesized analogs, cytotoxicity control for West Nile virus antiviral project, SAR follow-up (AID 2244); assay type: functional; conditions: Chlorocebus sabaeus
[4] = A Cell Based Assay for the Identification of Probe candidate Compounds with Anti- Venezuelan Equine Encephalitis virus. [Related pubchem assays: 2409, 2419, 1621, 2238, 2405, 2024, 2065, 2402, 2414, 1635, 1650, 2244 ]; assay type: functional
Vero [5] = experiment: antiviral protection of cells from WNV – synthesized analogs, SAR follow-up (AID 2238); assay type: functional, cell-based; conditions: Chlorocebus sabaeus
Vero [6] = experiment: antiviral activity against WNV, CPE read-out – cell-based (AID 2419); assay type: functional; conditions: Chlorocebus sabaeus
Vero [7] = experiment: inhibition of WNV-induced cytopathic effect – cell-based, CPE readout (AID 1621); assay type: functional; conditions: Chlorocebus sabaeus
[8] = molecular target: T1, G-protein coupled receptor 35 (Homo sapiens, UniProt Q9HC97); experiment: SAR analysis of Antagonists of the GPR35 Receptor using an Image-Based Assay - Set 5. [Related pubchem assays (depositor defined):AID2058, AID2079]; assay type: functional
T1 sequence (Q9HC97 whole entry): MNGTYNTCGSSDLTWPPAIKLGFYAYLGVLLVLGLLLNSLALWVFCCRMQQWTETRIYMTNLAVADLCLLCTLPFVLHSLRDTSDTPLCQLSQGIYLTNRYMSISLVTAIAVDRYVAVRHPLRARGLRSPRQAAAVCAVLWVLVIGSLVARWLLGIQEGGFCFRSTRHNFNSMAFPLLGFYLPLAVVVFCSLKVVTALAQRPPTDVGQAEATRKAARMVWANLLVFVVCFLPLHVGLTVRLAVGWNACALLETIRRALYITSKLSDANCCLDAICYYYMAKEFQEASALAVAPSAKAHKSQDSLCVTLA

[9] = molecular target: T1, G-protein coupled receptor 35; experiment: SAR Analysis for the identification of Selective Antagonists of ERK1/2 Activity in GPR35-Overexpressing U2OS Cells - Set 2. [Related pubchem assays (depositor defined):AID2058, AID2079]; assay type: functional, cell-based
[10] = molecular target: G-protein coupled receptor 55 (Homo sapiens, UniProt Q9Y2T6); experiment: SAR Analysis of Selective Antagonists of GPR55 using an Image-Based Assay - Set 3. [Related pubchem assays (depositor defined):AID2058, AID2079]; assay type: functional
Sequence of G-protein coupled receptor 55 (Q9Y2T6 whole entry): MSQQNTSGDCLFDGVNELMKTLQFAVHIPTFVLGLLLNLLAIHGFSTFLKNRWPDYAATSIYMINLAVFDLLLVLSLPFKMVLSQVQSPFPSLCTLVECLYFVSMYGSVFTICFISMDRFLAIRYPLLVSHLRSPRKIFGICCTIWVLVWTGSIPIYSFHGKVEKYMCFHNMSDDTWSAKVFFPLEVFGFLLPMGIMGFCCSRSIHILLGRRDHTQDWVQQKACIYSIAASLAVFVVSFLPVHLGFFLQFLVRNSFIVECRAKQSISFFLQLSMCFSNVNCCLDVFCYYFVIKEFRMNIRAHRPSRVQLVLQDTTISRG

Mu-type opioid receptor = Mu-type opioid receptor (Homo sapiens, UniProt P35372); experiment: SAR Analysis of Antagonists of the MOR Receptor using an Image-Based Assay - Set 3. [Related pubchem assays (depositor defined):AID1777, AID1785, AID1786, AID1966, AID2133, AID2136, AID2284, AID2285, AID2420]; assay type: functional
Sequence of Mu-type opioid receptor (P35372 whole entry): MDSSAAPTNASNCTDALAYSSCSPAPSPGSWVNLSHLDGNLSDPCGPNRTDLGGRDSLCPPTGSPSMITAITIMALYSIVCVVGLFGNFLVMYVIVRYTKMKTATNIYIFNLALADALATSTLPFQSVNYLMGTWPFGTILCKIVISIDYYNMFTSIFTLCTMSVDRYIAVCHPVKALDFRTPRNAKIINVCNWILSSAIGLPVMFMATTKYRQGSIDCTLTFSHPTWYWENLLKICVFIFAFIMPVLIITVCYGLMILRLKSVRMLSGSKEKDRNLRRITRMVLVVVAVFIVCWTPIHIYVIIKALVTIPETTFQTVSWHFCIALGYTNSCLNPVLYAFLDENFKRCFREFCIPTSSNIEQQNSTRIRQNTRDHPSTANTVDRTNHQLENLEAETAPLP

[11] = molecular target: Delta-type opioid receptor (Homo sapiens, UniProt P41143); experiment: SAR Analysis of Antagonists of the DOR Receptor using an Image-Based Assay - Set 3. [Related pubchem assays (depositor defined):AID1777, AID1785]; assay type: functional;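 also: U2OS cells expressing DOR1 and beta-arrestin GFP stimulated with 100 nM SNC80; imaging of GFP-tagged beta-arrestin moving into spots after receptor activation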
Sequence of Delta-type opioid receptor (P41143 whole entry): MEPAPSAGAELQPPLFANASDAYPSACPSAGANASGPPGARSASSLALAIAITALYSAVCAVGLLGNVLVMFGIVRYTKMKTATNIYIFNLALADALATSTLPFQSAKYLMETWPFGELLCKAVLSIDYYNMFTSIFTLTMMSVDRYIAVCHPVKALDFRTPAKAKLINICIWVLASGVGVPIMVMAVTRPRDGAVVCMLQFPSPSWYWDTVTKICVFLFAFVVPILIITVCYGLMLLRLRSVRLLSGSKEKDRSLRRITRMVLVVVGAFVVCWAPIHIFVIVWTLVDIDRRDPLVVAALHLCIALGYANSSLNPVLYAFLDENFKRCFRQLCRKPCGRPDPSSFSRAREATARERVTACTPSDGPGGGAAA

[12] = molecular target: T2, Kappa-type opioid receptor (Homo sapiens, UniProt P41145); experiment: SAR analysis of small molecule antagonists of the kappa opioid receptor via a luminescent beta-arrestin assay - Set 3. [Related pubchem assays (depositor defined):AID1777, AID1778, AID1785, AID1786, AID1966, AID2133, AID2136, AID2285, AID2495]; assay type: functional
T2 sequence (P41145 whole entry): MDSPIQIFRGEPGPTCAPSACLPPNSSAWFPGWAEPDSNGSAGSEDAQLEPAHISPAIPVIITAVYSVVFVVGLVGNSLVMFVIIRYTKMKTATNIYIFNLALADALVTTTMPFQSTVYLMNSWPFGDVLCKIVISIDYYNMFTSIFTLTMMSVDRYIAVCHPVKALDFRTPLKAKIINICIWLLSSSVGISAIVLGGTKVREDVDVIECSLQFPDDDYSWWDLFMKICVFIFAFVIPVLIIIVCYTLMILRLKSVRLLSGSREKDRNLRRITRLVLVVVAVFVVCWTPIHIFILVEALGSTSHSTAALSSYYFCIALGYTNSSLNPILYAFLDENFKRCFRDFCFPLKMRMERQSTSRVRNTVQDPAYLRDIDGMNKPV

[13] = molecular target: T2, Kappa-type opioid receptor; experiment: SAR analysis of Antagonists of the Kappa Opioid Receptor (KOR) using an Image-Based Assay - Set 3. [Related pubchem assays (depositor defined):AID1777, AID1785]; assay type: functional

## CN(C)CCCN1c2ccc([N+](=O)[O-])cc2CCc2cc([N+](=O)[O-])ccc21
Vero [1]
  CC50: 18.5 µM (active)
Vero [2]
  CC50: 15.4 µM (active)
Vero [3]
  CC50: 21.6 µM (active)
[4]
  IC50: 8.59 µM (active)
Vero [5]
  IC50: 13.9 µM (active)
Vero [6]
  IC50: 11.4 µM (active)
Vero [7]
  IC50: 10.8 µM (active)

## CNC(=S)N/N=C/c1c(C(=O)OC)cnn1-c1ccc(Cl)cc1
[8]
  IC50: 1.25 µM (active)
[9]
  IC50: 4.11 µM (active)
[10]
  IC50: > 32 µM (inactive)

## Cc1cccc(S(=O)(=O)NCc2ccc(C(=O)NCCN3Cc4ccccc4C3)cc2)c1
Mu-type opioid receptor
  IC50: > 32 µM (inactive)
[11]
  IC50: > 32 µM (inactive)
[12]
  IC50: > 20 µM (inactive)
[13]
  IC50: > 32 µM (inactive)
